Reference: patent publication US20240317683A1, “METHODS OF TREATING MOOD DISORDERS” (priority 2020, published 2024)
Where a name gives a salt, the structure may show the parent alone.

Experiments:
[1] = system: rat synaptosomes; assay: Synaptosome 5-HT release assay; format: biochemical, Sprague-Dawley rats; details: for EC50: [3H]5-HT
Procedure: Synaptosome 5-HT Release Assay. Synaptosome release assays were conducted according to modifications of previously described procedures (Partilla et al. (2016). Interrogating the Activity of Ligands at Monoamine Transporters in Rat Brain Synaptosomes. In Neurotransmitter Transporters (pp. 41-52). Springer.). Briefly, synaptosomes were prepared from rat brains. Male Sprague-Dawley rats were rendered unconscious with CO2 and their brains were immediately removed. The cerebella were discarded and the whole brains (minus striatum) were placed in ice-cold 0.32 M sucrose (10 mL per brain) and gently homogenized by hand. The homogenate of each brain was centrifuged at 1,000× g at 4° C. for 10 mins and the resulting supernatant was diluted with ice-cold 0.32 M sucrose to a total volume of 10 mL to provide the synaptosome solution. Synaptosomes were then preloaded with 5 nM [^3H] 5-HT in the presence of selective uptake inhibitors of DAT (50 nM GBR12935), NET (100 nM nomifensine), and VMAT2 (1 μM reserpine) in Krebs phosphate buffer (KPB). The incubations were allowed to reach equilibrium for 2 h at 25° C. For the release reactions, 425 μL of preloaded synaptosomes were added to test tubes containing 75 μL of test drugs diluted in KPB containing 1 mg/mL BSA. After 10 mins, the release reaction was stopped using a cell harvester by rapid vacuum filtration over GF/B filter paper presoaked in wash buffer (10 mM Tris-HCl, pH 7.4, 150 mM NaCl) and the filters were washed with additional wash buffer. Filters were dried for 1 h at 60° C. and retained radioactivity was quantified using a MicroBeta 2 liquid scintillation counter. The amount of retained radioactivity was inversely proportional to the extent of release.

[2] = biological target: CYP2D6 (Homo sapiens (Human), UniProt P10635); assay: CYP inhibition in human liver microsomes, CYP2D6; format: in vitro ADME; details: for inhibition at 10 min, 10 µM: both sexes, human, pooled human liver microsomes, pH 7.4, probe dextromethorphan (5 μM), HLM, dextromethorphan substrate, read-out: CYP 2D6 % Inhibition at 10 μM
CYP2D6, sequence (P10635 whole entry, looked up): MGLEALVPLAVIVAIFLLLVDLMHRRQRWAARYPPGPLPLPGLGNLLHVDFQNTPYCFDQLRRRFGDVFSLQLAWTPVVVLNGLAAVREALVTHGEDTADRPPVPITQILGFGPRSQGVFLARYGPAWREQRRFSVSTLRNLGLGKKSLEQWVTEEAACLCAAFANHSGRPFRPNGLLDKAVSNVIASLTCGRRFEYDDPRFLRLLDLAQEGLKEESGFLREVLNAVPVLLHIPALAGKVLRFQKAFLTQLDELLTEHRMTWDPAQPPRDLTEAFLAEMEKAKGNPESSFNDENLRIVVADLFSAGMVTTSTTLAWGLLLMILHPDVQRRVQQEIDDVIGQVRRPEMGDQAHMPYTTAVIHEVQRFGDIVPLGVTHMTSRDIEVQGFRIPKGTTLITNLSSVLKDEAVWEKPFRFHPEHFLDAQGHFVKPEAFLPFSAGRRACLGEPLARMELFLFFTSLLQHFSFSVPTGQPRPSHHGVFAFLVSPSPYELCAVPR

[3] = biological target: CYP1A2 (Homo sapiens (Human), UniProt P05177); assay: CYP inhibition in human liver microsomes, CYP1A2; format: in vitro ADME; details: for inhibition at 10 min, 10 µM: both sexes, human, pooled human liver microsomes, pH 7.4, probe phenacetin (10 μM), HLM, phenacetin substrate, read-out: CYP 1A2 % Inhibition at 10 μM
CYP1A2, sequence (P05177 whole entry, looked up): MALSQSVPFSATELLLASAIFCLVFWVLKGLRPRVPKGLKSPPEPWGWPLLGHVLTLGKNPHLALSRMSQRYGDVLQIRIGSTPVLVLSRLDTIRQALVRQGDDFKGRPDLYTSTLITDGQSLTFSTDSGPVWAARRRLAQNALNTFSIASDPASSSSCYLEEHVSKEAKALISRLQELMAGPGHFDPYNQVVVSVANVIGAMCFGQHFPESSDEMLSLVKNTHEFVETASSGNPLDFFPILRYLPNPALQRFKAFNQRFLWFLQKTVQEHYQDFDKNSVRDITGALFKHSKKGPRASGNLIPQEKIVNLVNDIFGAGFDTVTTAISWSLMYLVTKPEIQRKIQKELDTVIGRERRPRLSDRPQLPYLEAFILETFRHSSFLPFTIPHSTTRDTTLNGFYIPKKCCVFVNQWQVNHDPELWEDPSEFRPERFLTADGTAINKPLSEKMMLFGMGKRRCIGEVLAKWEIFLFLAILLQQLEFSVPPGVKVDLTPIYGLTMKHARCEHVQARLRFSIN
Procedure: (§1) HLM Incubations. Pooled HLM from adult male and female donors (Corning 452117) were used. Microsomal incubations were carried out in multi-well plates. Liver microsomal incubation aliquots contained 1) PBS (100 mM, pH 7.4), MgCl2 (3.3 mM), and NADPH (1 mM); 2) liver microsomal protein (0.2 mg/mL); 3) the reference CYP substrates: phenacetin for CYP1A2 (10 μM), diclofenac for CYP2C9 (5 μM), (S)-mephenytoin for CYP2C19 (30 μM), dextromethorphan for CYP2D6 (5 μM), and midazolam for CYP3A4 (2 μM); and 4) test compounds (10 μM), control inhibitors (3 μM α-naphthoflavone for CYP1A2, 3 μM sulfaphenazole for CYP2C9, 1 μM (+)-N-3-benzylnirvanol for 2C19, 3 μM quinidine for CYP2D6, or 3 μM ketoconazole for CYP3A4), or solvent (for uninhibited condition). Incubations were carried out at 37° C. with constant shaking for 10 minutes.
(§2) Sample Analysis. […] Percent inhibition by test compounds or control inhibitors was calculated by comparing the metabolite formation in the presence of the inhibitor compared to the metabolite formation in the absence of the inhibitor.

[4] = biological target: CYP2C19 (Homo sapiens (Human), UniProt P33261); assay: CYP inhibition in human liver microsomes, CYP2C19; format: in vitro ADME; details: for inhibition at 10 min, 10 µM: both sexes, human, pooled human liver microsomes, pH 7.4, probe (S)-mephenytoin (30 μM), HLM, (S)-mephenytoin substrate, read-out: CYP 2C19 % Inhibition at 10 μM
CYP2C19, sequence (P33261 whole entry, looked up): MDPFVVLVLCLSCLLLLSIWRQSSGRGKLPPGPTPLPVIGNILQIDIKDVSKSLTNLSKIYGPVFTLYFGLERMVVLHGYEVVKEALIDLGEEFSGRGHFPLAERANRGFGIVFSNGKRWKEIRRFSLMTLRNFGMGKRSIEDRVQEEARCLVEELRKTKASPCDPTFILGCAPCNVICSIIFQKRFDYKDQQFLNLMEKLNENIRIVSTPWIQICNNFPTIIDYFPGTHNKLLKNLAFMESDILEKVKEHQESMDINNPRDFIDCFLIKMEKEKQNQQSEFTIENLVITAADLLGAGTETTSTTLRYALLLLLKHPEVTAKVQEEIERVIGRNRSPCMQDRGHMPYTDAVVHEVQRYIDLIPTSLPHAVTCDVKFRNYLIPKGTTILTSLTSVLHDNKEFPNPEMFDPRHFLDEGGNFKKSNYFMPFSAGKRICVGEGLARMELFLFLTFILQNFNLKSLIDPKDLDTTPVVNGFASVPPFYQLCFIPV
Procedure: as §1, §2

[5] = system: C57BL/6 mice; assay: Marble burying test (MBT) in mice; format: in vivo; details: SC, 30 minutes prior, 30-minute period, vs. vehicle
Procedure: Animals. Adult male C57BL/6 mice, aged 8-10 weeks (body weight 20-25 g), were used in these experiments. Animals were housed under controlled temperatures and 12-hour light/dark cycles (lights on between 07:00-19:00 h), with ad libitum food and water. All efforts were made to minimize suffering.
Drugs and Drug Administration. Compound 4 was prepared as described above. Desipramine HCl was commercially obtained. The test compound, vehicle, and the positive control desipramine were administered subcutaneously (SC), with doses calculated based on the freebase. Normal saline was used as the vehicle. All compounds were administered at a volume of 10 ml/kg. All treatments were administered 30 minutes prior to the start of behavioral testing. Group size was n=9-10 per treatment.
Marble Burying Test (MBT). […] Mice were handled for about 2 min daily for the 3 days prior to the beginning of the experimental procedure. Twenty glass marbles (16 mm diameter) were placed at equal distances in a 5×4 pattern on a 5-cm layer of corn-cob bedding, with marbles at least 2 cm from the borders of the cage. The total number of marbles buried were counted in three 10-minute time bins (total 30 minutes). A marble was considered buried when it was >⅔ covered by bedding material.
Statistical Analysis. The data points shown are the mean ±standard error of the mean (SEM). Analysis was performed using GraphPad Prism 6. […]

[6] = system: C57BL/6 mice; assay: Open field locomotor activity in mice; format: in vivo; details: SC
Procedure: Animals. Male C57BL/6 mice, 5-8 weeks of age, (body weight 25-30 g; Envigo, Indianapolis, IN, USA) were housed 5 per polycarbonate tub with soft bedding in a temperature-and humidity-controlled vivarium. Mice were maintained under a 12-h light/dark cycle with lights on at 06:00. Food and water were available ad libitum. Animals acclimated to the vivarium for 1 week prior to experimental manipulations.
Drugs and Drug Administration. Compound 4 was prepared as described above. Compound 4 and saline vehicle were administered subcutaneously (SC), with doses calculated based on the HCl salt. Normal saline was used as the vehicle. All compounds were administered at a volume of 10 mL/kg. Compound 4 or vehicle were administered immediately before the start of the recording session.
Locomotor Activity. Locomotor activity was measured in experimental cages (length×width x height: 560×560×330 mm) by an animal movement analysis system SCANET MV-40 ([…] Co., Ltd., Toyama, Japan). The cumulative activity was recorded for 30 minutes prior to drug administration to establish a baseline, and then animals were recorded for 60 minutes immediately after drug administration. Cages were cleaned between testing sessions.
Statistical Analysis. The total number of beam breaks were summed into 5-minute time bins. The data points shown are the mean ±standard error of the mean (SEM). […]

Structure (SMILES) | % Release @ Max Dose (10 μM) [1] [%] | EC50 [1] [µM] | IC50 [2] [µM] | inhibition at 10 min, 10 µM [2] [%] | IC50 [3] [µM] | inhibition at 10 min, 10 µM [3] [%] | IC50 [4] [µM] | inhibition at 10 min, 10 µM [4] [%] | number of marbles buried [5] | total locomotor activity in the open field ([6]; 60 minutes after administration) | locomotor activity, highest dose group ([6]; highest dose group)
CN(C)CCc1c[nH]c2ccccc12 [DMT, N,N-dimethyltryptamine, reference compound] | 80.77 | 0.0808 |  |  |  |  |  |  |  |  | 
CCN(C)CCc1c[nH]c2ccccc12 [Compound 2, methylethyltryptamine] | 71 | 0.183 | 31.5 | 11.5 | > 50 | 0.5 | > 50 | 0 |  |  | 
CCCN(CC)CCc1c[nH]c2ccc(F)cc12 [Compound 3, N-ethyl-N-(2-(5-fluoro-1H-indol-3-yl)ethyl) propan-1-amine hydrochloride] |  |  | 1.9 |  | 8.4 |  | > 50 |  |  |  | 
CCN(C)CCc1c[nH]c2ccc(F)cc12 [Compound 4, N-ethyl-2-(5-fluoro-1H-indol-3-yl)-N-methylethan-1-amine hydrochloride] | 71.36 | 0.00843 | > 50 |  | > 50 |  | > 50 |  | dose-dependent reduction | dose-dependent decrease | near complete reduction in activity
CCN(C)CCc1c[nH]c2cccc(O)c12 [Compound 6] |  |  | 48.5 |  | > 50 |  | > 50 |  |  |  | 
CCCN(CC)CCc1c[nH]c2ccccc12 [Compound 1, ethylpropyltryptamine] |  |  |  | 58.6 |  | 37.1 |  | 2.3 |  |  | 
